In US9809602B2, “Compounds for treating viral infections” (INSTITUT PASTEUR KOREA, priority 2014, dated 2017):

Legend:
Format in all cases: cell-based
[1] = system: genotype 1/2 chimeric cell culture derived HCV (HCVcc); assay: Genotype 1/2 chimeric HCVcc assay (nano-luciferase, HCV replication); conditions: Hepatitis C virus
Procedure, shortened: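 Huh-7.5 cells (2400/well) pretreated 2 h with serially diluted compound, then infected with nano-luciferase genotype 1a/2a (JFH-1) chimeric HCVcc. At 72 h post infection, nano-luciferase reported replication and cellular ATP reported cytotoxicity; EC50 and CC50 by non-linear regression.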

[2] = system: HCV genotype 1b (J4) chimeric HCVcc; assay: Pan-genotypic activity test using chimeric HCVcc, genotype 1b; conditions: Hepatitis C virus, read-out: EC50 gt1b
Description: (§1) Naïve Huh-7.5 target cells were plated at 2400 cells/well in 25 μL of culture media in 384-well plates (Greiner bio-one, μ clear black). After overnight incubation, compounds serially diluted in 10 μL of cell culture media were added. After 2 h compound treatment, cells were inoculated with 40 μL of genotype 1/2 chimeric cell culture derived HCV (HCVcc) which express structural proteins of an HCV genotype 1a isolate (TN accession number EF621489) and non-structural proteins of HCV genotype 2a (JFH-1) with nano-luciferase reporter. At 72 h post infection, nano-luciferase activity (Nano-Glo™, Promega) and cellular ATP (Cell titer-Glo™, Promega) were measured as a marker for HCV replication and cytotoxicity, respectively. EC50 and CC50 were calculated by non-linear regression analyzing using GraphPad Prism (GraphPad Software).
(§2) In order to evaluate cross-genotypic antiviral activity against various HCV genotypes, Formulas I and II were tested using chimeric HCVcc as described above. HCV chimeras expressing the structural proteins of HCV genotype 1b (J4), 2a (J6), 2b (J8), 3a (S52), 4a (ED43), 5a (SA13), 6a (HK6a) or 7a (QC69), followed by HCV genotype 2a (JFH-1) derived non-structural proteins responsible for viral RNA replication and Renilla luciferase reporter gene were used to monitor viral replication.

[3] = system: HCV genotype 2b (J8) chimeric HCVcc; assay: Pan-genotypic activity test using chimeric HCVcc, genotype 2b; conditions: Hepatitis C virus, read-out: EC50 gt2b
Description: as §1, §2

[4] = system: HCV genotype 2a (J6) chimeric HCVcc; assay: Pan-genotypic activity test using chimeric HCVcc, genotype 2a; conditions: Hepatitis C virus, read-out: EC50 gt2a
Description: as §1, §2

[5] = system: HCV genotype 1a chimeric HCVcc; assay: Pan-genotypic activity test using chimeric HCVcc, genotype 1a; conditions: Hepatitis C virus, read-out: EC50 gt1a
[6] = system: HCV genotype 4a (ED43) chimeric HCVcc; assay: Pan-genotypic activity test using chimeric HCVcc, genotype 4a; conditions: Hepatitis C virus, read-out: EC50 gt4a
Description: as §1, §2

[7] = system: HCV genotype 6a (HK6a) chimeric HCVcc; assay: Pan-genotypic activity test using chimeric HCVcc, genotype 6a; conditions: Hepatitis C virus, read-out: EC50 gt6a
Description: as §1, §2

[8] = system: HCV genotype 3a (S52) chimeric HCVcc; assay: Pan-genotypic activity test using chimeric HCVcc, genotype 3a; conditions: Hepatitis C virus, read-out: EC50 gt3a
Description: as §1, §2

[9] = system: HCV genotype 5a (SA13) chimeric HCVcc; assay: Pan-genotypic activity test using chimeric HCVcc, genotype 5a; conditions: Hepatitis C virus, read-out: EC50 gt5a
Description: as §1, §2

[10] = system: HCV genotype 7a (QC69) chimeric HCVcc; assay: Pan-genotypic activity test using chimeric HCVcc, genotype 7a; conditions: Hepatitis C virus, read-out: EC50 gt7a
Description: as §1, §2

## CC1CCCc2sc(NC(=O)NCc3c(Br)sc4c3CCNC4)c(C(=O)OC(C)(C)C)c21 (stereo not shown) [Compound 290]
[1]; Huh7.5, 72 h
  EC50: < 100 nM

## CCOC(=O)c1c(NC(=O)NCc2c(-n3cccc3)sc3c2CCNC3)sc2c1CCCC2 [Compound 61]
[1]; Huh7.5, 72 h
  EC50: < 100 nM

## O=C(NCCCN1CCC(N2CCCC2)CC1)c1ccc(Oc2ccccc2)cc1 [Compound 1067]
[1]
  EC50: 100 to 1000 nM

## CCc1sc2c(c1CNC(=O)Nc1sc3c(c1C(=O)OC1CCCC1)CCCC3)CCNC2 [Compound 313]
[1]; Huh7.5, 72 h
  EC50: < 100 nM

## CCN1CCc2c(sc(-n3cccc3)c2CNC(=O)Nc2sc3c(c2C(=O)OC(C)(C)C)CCCC3)C1 [No. 14]
[2]
  EC50: 100 to 1000 nM
[3]
  EC50: < 100 nM
[4]
  EC50: 100 to 1000 nM
[5]
  EC50: 100 to 1000 nM
[6]
  EC50: 100 to 1000 nM
[7]
  EC50: > 10000 nM
[8]
  EC50: 100 to 1000 nM
[9]
  EC50: 1000 to 10000 nM
[10]
  EC50: < 100 nM

## COc1cccc(-c2sc3c(c2CNC(=O)Nc2sc4c(c2C(=O)OC(C)(C)C)CCCC4)CCNC3)c1 [Compound 228]
[1]; Huh7.5, 72 h
  EC50: 100 to 1000 nM

## COC(=O)c1c(NC(=O)NCc2c(-n3cccc3)sc3c2CCNC3)sc2c1CCCC2 [Compound 142]
[1]; Huh7.5, 72 h
  EC50: 100 to 1000 nM

## CC(C)OC(=O)c1c(NC(=O)NCc2c(-n3cccc3)sc3c2CCNC3)sc2c1CCCC2 [Compound 141]
[1]; Huh7.5, 72 h
  EC50: < 100 nM

## CCOC(=O)c1c(NC(=O)C(=O)NCc2c(C(F)(F)F)sc3c2CCNC3)sc2c1CCCC2 [Compound 120]
[1]; Huh7.5, 72 h
  EC50: 1000 to 10000 nM

## CN(C)C1CCN(CCCNC(=O)c2ccc(Oc3ccccc3)cc2)CC1 [Compound 1068]
[1]
  EC50: 100 to 1000 nM

## O=C(NCc1c(-n2cccc2)sc2c1CCNC2)Nc1sc2c(c1C(=O)N1CCOCC1)CCCC2 [Compound 76]
[1]; Huh7.5, 72 h
  EC50: 100 to 1000 nM

## CC(C)OC(=O)c1c(NC(=O)NCc2c(Br)sc3c2CC[N+](C)(C)C3)sc2c1CCCC2 [Compound 173]
[1]; Huh7.5, 72 h
  EC50: < 100 nM

## CN1CCc2c(sc(-n3cccc3)c2CNC(=O)Nc2sc3c(c2C(=O)OC(C)(C)C)CCCC3)C1 [Compound 68]
[1]; Huh7.5, 72 h
  EC50: < 100 nM

## CCOC(=O)c1c(NC(=O)NCc2c(-n3cccc3)sc3c2CCN(CC)C3)sc(C(=O)N(C)C)c1C [Compound 58]
[1]; Huh7.5, 72 h
  EC50: 1000 to 10000 nM

## CCOC(=O)c1c(NC(=O)NCc2c(-n3cccc3)sc3c2CCN(S(C)(=O)=O)C3)sc2c1CCCC2 [No. 21]
[2]
  EC50: < 100 nM
[4]
  EC50: < 100 nM
[5]
  EC50: < 100 nM
[6]
  EC50: < 100 nM
[7]
  EC50: > 10000 nM
[8]
  EC50: < 100 nM
[9]
  EC50: 1000 to 10000 nM
[10]
  EC50: < 100 nM

## O=C(NCCCN1CCC(N2CCCCC2)CC1)c1ccc(C2CCCCC2)cc1 [Compound 1003]
[1]
  EC50: 100 to 1000 nM

## CCOC(=O)c1c(NC(=O)NCc2c(-n3cccc3)sc3c2CCNC3)sc2c1CCCC2 [No. 19]
[2]
  EC50: 100 to 1000 nM
[3]
  EC50: 100 to 1000 nM
[4]
  EC50: 100 to 1000 nM
[5]
  EC50: 100 to 1000 nM
[6]
  EC50: 100 to 1000 nM
[7]
  EC50: > 10000 nM
[8]
  EC50: 100 to 1000 nM
[9]
  EC50: 1000 to 10000 nM
[10]
  EC50: 100 to 1000 nM

## COc1ccc(Oc2ccc(C(=O)NCCCN3CCC(N4CCCCC4)CC3)cc2)cc1 [Compound 1032]
[1]
  EC50: 100 to 1000 nM

## CC(C)(C)OC(=O)c1c(NC(=O)NCc2c(-c3ccc(F)cc3)sc3c2CCNC3)sc2c1CCCC2 [Compound 159]
[1]; Huh7.5, 72 h
  EC50: < 100 nM

## O=C(NCCCN1CCC(N2CCCCC2)CC1)c1ccc(-c2ccc(C(F)(F)F)cc2)nc1 [Compound 1080]
[1]
  EC50: 100 to 1000 nM

## CCOC(=O)c1c(NC(=O)NCc2c(-n3cccc3)sc3c2CCN(CC)C3)sc2c1CCOC2 [Compound 41]
[1]; Huh7.5, 72 h
  EC50: < 100 nM

## C=CCCOC(=O)c1c(NC(=O)NCc2c(Br)sc3c2CCNC3)sc2c1CCCC2 [Compound 274]
[1]; Huh7.5, 72 h
  EC50: < 100 nM

## CCOC(=O)c1c(NC(=O)NCc2c(-n3cccc3)sc3c2CCN(CC)C3)sc(C(C)=O)c1C [Compound 39]
[1]; Huh7.5, 72 h
  EC50: < 100 nM
